Experiments:
cerebral aneurysm model = assay: Inhibitory effect on formation of cerebral aneurysm in cerebral aneurysm model (EvG staining, size of aneurysm); format: in vivo, SD rat; details: 5 mL/kg, forced oral, once a day, Day 0 to Day 26
Protocol: A rat model of cerebral aneurysm was prepared according to the method disclosed on the literature by Hashimoto et al. (Surgical Neurology 1978, Vol. 10, p. 3-8). Namely, 50 mg/kg of pentobarbital was administrated intraperitoneally to a 7-week-old male SD rat, and the left common carotid artery and the left renal artery were ligated by using 10-0 nylon thread under anesthesia (this is referred to as the surgery for inducing cerebral aneurysm). From the day after surgery (Day 1), the rat was reared with being fed a high-salt diet. During a rearing period, the rat was given free access to water. Forced oral administration of 0.03 mg/5 mL or 0.1 mg/5 mL of the suspension of Compound 1 to the cerebral aneurysm model was conducted once a day at a dose of 5 mL/kg from the day after surgery, i.e., 1 day after surgery (Day 1) to 27 days after surgery (Day 27). It should be noted that forced oral administration of the 0.5% MC solution (0 mg/5 mL of the suspension of Compound 1) to the cerebral aneurysm model was conducted once a day at a dose of 5 mL/kg. The group of these rats was defined as a vehicle group. 28 Days after surgery (Day 28), the right olfactory artery/anterior cerebral artery bifurcation containing cerebral aneurysm was extirpated and was fixed with 4% paraformaldehyde, and then the solution was replaced with a 30% sucrose solution, and thereafter, the extirpated bifurcation was frozen to prepare a specimen of a frozen section having a thickness of 5 μm, by similar procedures to the steps 1) and 2) of the method of Reference Example 2. This specimen was subjected to EvG staining and the formation of cerebral aneurysm was confirmed. The size of cerebral aneurysm was measured and evaluation was conducted. The maximum diameter (Maximum) represents the maximum distance between internal elastic lamina disruption sites observed by EvG staining, the height “Height” represents the maximum value of height defined as the length of the perpendicular line drawn from the line connecting the two ends of internal elastic lamina, and the mean diameter “Mean” represents the mean value of the maximum diameter and the height. This evaluation was conducted on all the rats (8 or 9 rats) of each of the groups, and the mean value of each of the groups was calculated. The administration of 0.1 mg/5 mL of a suspension of Compound 2 to the cerebral aneurysm model was started on the day of the surgery (Day 0) at a dose of 5 mL/kg, and forced oral administration was conducted once a day until 26 days after surgery (Day 26). The size of cerebral aneurysm was measured by using the protocol of Example 1. […] The size of cerebral aneurysm was measured by using the protocol of Example 1. […] The size of cerebral aneurysm was measured by using the protocol of Example 1.

[1] = system: Human carotid artery endothelial cells; assay: Inhibitory action of S1P1 receptor antagonist on inhibitory effect of Compound 1 on permeability of endothelial cells; format: cell-based; details: antagonist 0.1 nM, 1 nM, 10 nM, or 100 nM with Compound 1 100 nM; FITC-dextran; FIG. 15
Protocol: Human carotid artery endothelial cells HCtAEC (Cell Applications) were seeded in the upper compartment of Transwell (diameter: 6.5 mm, pore size: 0.4 μm, collagen-Coated: Corning) so that the cell density was 1×10^5 cells/well, and the cells were cultured overnight in MesoEndo Growth Medium (Cell Applications) under a 5% CO2 atmosphere at 37° C. The medium was replaced with Endothelial Cell Serum-Free Defined Medium (Cell Applications), and the cells were further cultured overnight under the CO2 atmosphere at 37° C. Then, Compound 1 was added to the upper compartment and the lower compartment of Transwell so that the final concentration was 0 nM, 0.1 nM, 1 nM, 10 nM, or 100 nM, and the cells were cultured continuously. The well to which Compound 1 was not added was defined as a control. After culturing for 60 minutes, 250 μg/mL of fluorescein isothiocyanate (FITC)-dextran (2,000 kDa: Sigma-Aldrich) was added to the upper compartment of Transwell, and the amount of FITC-dextran which permeated into the lower compartment was determined by measuring the fluorescence intensity of the medium in the lower compartment after 5 minutes, 60 minutes, and 210 minutes. […]
After culturing for 60 minutes, the amount of FITC-dextran which permeated into the lower compartment was determined in a similar manner to Example 6.

**Q.** For `Cl.O=C(O)C1CCN(CC2=Cc3ccc(OCc4ccc(OCC(F)(F)F)c(C(F)(F)F)c4)cc3OC2)CC1` [Compound 2, 1-[(7-{[4-(2,2,2-trifluoroethoxy)-3-(trifluoromethyl)benzyl]oxy}-2H-chromen-3-yl)methyl]piperidine-4-carboxylic acid hydrochloride], which “formation of cerebral aneurysm (size)” value (cerebral aneurysm model; 0.1 mg/5 mL suspension, FIG. 11) is on record?
**A.** The value was “inhibited the formation of cerebral aneurysm”.

**Q.** With `Cl.NC(CO)(CO)CCc1ccc(Sc2cccc(OCc3ccccc3)c2)cc1Cl` [Compound 3, 2-amino-2-[2-[4-[3-(benzyloxy)phenylsulfanyl]-2-chlorophenyl]ethyl]propane-1,3-diol hydrochloride] as the molecule, how does the “formation of cerebral aneurysm (size)” value (cerebral aneurysm model; 0.01 mg/5 mL suspension, FIG. 12) read?
**A.** Its value is “inhibited the formation of cerebral aneurysm”.

**Q.** For `CCc1cc(/C(C)=N/OCc2ccc(C3CCCCC3)c(C(F)(F)F)c2)ccc1CN1CC(C(=O)O)C1` [Compound 4, 1-[4-[N-[4-cyclohexyl-3-(trifluoromethyl)benzyloxy]-1(E)-iminoethyl]-2-ethylbenzyl]azetidine-3-carboxylic acid], which “formation of cerebral aneurysm (size)” value (cerebral aneurysm model; 0.3 mg/5 mL suspension, FIG. 13) is on record?
**A.** The value was “inhibited the formation of cerebral aneurysm”.

**Q.** Which “effect on the inhibitory effect of Compound 1 on permeability of endothelial cells” value [1] does the source give for `CCn1c(Oc2cccc(N3CCN(C)CC3)c2)nnc1[C@@H](C)NS(=O)(=O)c1ccc2c(Cl)cccc2c1` [Compound At, 5-chloro-N-[(1R)-1-{4-ethyl-5-[3-(4-methylpiperazin-1-yl)phenoxy]-4H-1,2,4-triazol-3-yl}ethyl]naphthalene-2-sulfonamide] here?
**A.** The value was “inhibited the inhibitory effect of Compound 1 on permeability of endothelial cells in a concentration-dependent manner”.
